Laboratory results: patent publication US20210363213A1, “GLUCAGON-GLP-1-GIP TRIPLE AGONIST COMPOUNDS” (priority 2013, published 2021)
Peptide text beside a SMILES is read from it.

Molecular target: T1, human GIP R (Homo sapiens, UniProt P48546)
T1 construct: expressed in transfected cells
T1 sequence (P48546 22-466): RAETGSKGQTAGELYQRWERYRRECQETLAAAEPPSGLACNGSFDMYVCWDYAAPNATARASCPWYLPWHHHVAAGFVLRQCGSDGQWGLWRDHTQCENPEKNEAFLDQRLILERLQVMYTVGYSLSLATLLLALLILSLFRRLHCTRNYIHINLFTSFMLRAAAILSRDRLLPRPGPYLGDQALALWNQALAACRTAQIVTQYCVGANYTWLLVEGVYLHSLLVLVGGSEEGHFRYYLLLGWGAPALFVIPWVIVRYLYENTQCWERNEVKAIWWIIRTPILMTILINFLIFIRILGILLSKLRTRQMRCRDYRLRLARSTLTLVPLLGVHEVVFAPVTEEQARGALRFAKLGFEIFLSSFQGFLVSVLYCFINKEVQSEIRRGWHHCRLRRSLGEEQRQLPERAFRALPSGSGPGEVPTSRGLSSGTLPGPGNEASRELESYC
Experiment: Human GIP receptor (GIP-R) activity assay, cAMP induction (AlphaScreen) in HEK293 cells
Assay type: cell-based
Settings: not given

SMILES	EC50 [nM]
CC(C)C[C@H](NC(=O)[C@H](CC(C)C)NC(=O)[C@H](Cc1c[nH]c2ccccc12)NC(=O)[C@H](CCC(=O)O)NC(=O)[C@@H](NC(=O)[C@H](Cc1ccccc1)NC(=O)[C@H](CC(=O)O)NC(=O)[C@H](CCCNC(=N)N)NC(=O)[C@H](C)NC(=O)[C@H](C)NC(=O)[C@H](CCCCN)NC(=O)[C@H](CO)NC(=O)[C@H](CC(=O)O)NC(=O)[C@H](CC(C)C)NC(=O)[C@H](Cc1ccc(O)cc1)NC(=O)[C@H](CCCCN)NC(=O)[C@H](CO)NC(=O)[C@H](Cc1ccc(O)cc1)NC(=O)[C@H](CC(=O)O)NC(=O)[C@H](CO)NC(=O)[C@@H](NC(=O)[C@H](Cc1ccccc1)NC(=O)[C@@H](NC(=O)CNC(=O)[C@H](CCC(N)=O)NC(=O)C(C)(C)NC(=O)[C@@H](N)Cc1ccc(O)cc1)[C@@H](C)O)[C@@H](C)O)C(C)C)C(=O)N[C@@H](CO)C(=O)N[C@@H](C)C(N)=O [Compound 6] (HELM PEPTIDE1{Y.[Aib].Q.G.T.F.T.S.D.Y.S.K.Y.L.D.S.K.A.A.R.D.F.V.E.W.L.L.S.A.[am]}$$$$V2.0)	0.32
CC(C)C[C@H](NC(=O)[C@H](C)NC(=O)[C@H](CCCCN)NC(=O)[C@H](CO)NC(=O)[C@H](Cc1ccc(O)cc1)NC(=O)[C@H](CC(=O)O)NC(=O)[C@H](CO)NC(=O)[C@@H](NC(=O)[C@H](Cc1ccccc1)NC(=O)[C@@H](NC(=O)CNC(=O)[C@H](CCC(N)=O)NC(=O)C(C)(C)NC(=O)[C@@H](N)Cc1ccc(O)cc1)[C@@H](C)O)[C@@H](C)O)C(=O)N[C@@H](CC(=O)O)C(=O)N[C@@H](CO)C(=O)N[C@@H](CCCCN)C(=O)N[C@@H](C)C(=O)N[C@@H](C)C(=O)N[C@@H](Cc1c[nH]cn1)C(=O)N[C@@H](CC(=O)O)C(=O)N[C@@H](Cc1ccccc1)C(=O)N[C@H](C(=O)N[C@@H](CCC(=O)O)C(=O)N[C@@H](Cc1c[nH]c2ccccc12)C(=O)N[C@@H](CC(C)C)C(=O)N[C@@H](CC(C)C)C(=O)N[C@@H](CO)C(=O)N[C@@H](C)C(N)=O)C(C)C [Compound 7] (HELM PEPTIDE1{Y.[Aib].Q.G.T.F.T.S.D.Y.S.K.A.L.D.S.K.A.A.H.D.F.V.E.W.L.L.S.A.[am]}$$$$V2.0)	0.5
CC[C@H](C)[C@H](NC(=O)[C@H](CO)NC(=O)[C@H](Cc1ccc(O)cc1)NC(=O)[C@H](CC(=O)O)NC(=O)[C@H](CO)NC(=O)[C@@H](NC(=O)[C@H](Cc1ccccc1)NC(=O)[C@@H](NC(=O)CNC(=O)[C@H](CCC(N)=O)NC(=O)C(C)(C)NC(=O)[C@@H](N)Cc1ccc(O)cc1)[C@@H](C)O)[C@@H](C)O)C(=O)N[C@@H](Cc1ccc(O)cc1)C(=O)N[C@@H](CC(C)C)C(=O)N[C@@H](CC(=O)O)C(=O)N[C@@H](CO)C(=O)N[C@@H](CCCCN)C(=O)N[C@@H](C)C(=O)N[C@@H](C)C(=O)N[C@@H](CCCCN)C(=O)N[C@@H](CC(=O)O)C(=O)N[C@@H](Cc1ccccc1)C(=O)N[C@H](C(=O)N[C@@H](CCC(=O)O)C(=O)N[C@@H](Cc1c[nH]c2ccccc12)C(=O)N[C@@H](CC(C)C)C(=O)N[C@@H](CC(C)C)C(=O)N[C@@H](CO)C(=O)N[C@@H](C)C(N)=O)C(C)C [Compound 10] (HELM PEPTIDE1{Y.[Aib].Q.G.T.F.T.S.D.Y.S.I.Y.L.D.S.K.A.A.K.D.F.V.E.W.L.L.S.A.[am]}$$$$V2.0)	0.2
CC[C@H](C)[C@H](NC(=O)[C@H](CO)NC(=O)[C@H](Cc1ccc(O)cc1)NC(=O)[C@H](CC(=O)O)NC(=O)[C@H](CO)NC(=O)[C@@H](NC(=O)[C@H](Cc1ccccc1)NC(=O)[C@@H](NC(=O)CNC(=O)[C@H](CCC(N)=O)NC(=O)C(C)(C)NC(=O)[C@@H](N)Cc1ccc(O)cc1)[C@@H](C)O)[C@@H](C)O)C(=O)N[C@@H](Cc1ccc(O)cc1)C(=O)N[C@@H](CC(C)C)C(=O)N[C@@H](CC(=O)O)C(=O)N[C@@H](CO)C(=O)N[C@@H](CCCCN)C(=O)N[C@@H](C)C(=O)N[C@@H](C)C(=O)N[C@@H](Cc1c[nH]cn1)C(=O)N[C@@H](CC(=O)O)C(=O)N[C@@H](Cc1ccccc1)C(=O)N[C@H](C(=O)N[C@@H](CC(N)=O)C(=O)N[C@@H](Cc1c[nH]c2ccccc12)C(=O)N[C@@H](CC(C)C)C(=O)N[C@@H](CC(C)C)C(=O)N[C@@H](CO)C(=O)N[C@@H](C)C(N)=O)C(C)C [Compound 11] (HELM PEPTIDE1{Y.[Aib].Q.G.T.F.T.S.D.Y.S.I.Y.L.D.S.K.A.A.H.D.F.V.N.W.L.L.S.A.[am]}$$$$V2.0)	0.25

Same assay, conditions: Table 2b (most comprehensive data); average EC50; cAMP in HEK293 cells expressing human GIP R; read-out: GIP R (EC50 in nM)

EC50 [nM]	SMILES
0.19	CCCCCCCCCCCCCCCC(=O)N[C@@H](CCC(=O)NCCCC[C@H](NC(=O)[C@H](CO)NC(=O)[C@H](Cc1ccc(O)cc1)NC(=O)[C@H](CC(=O)O)NC(=O)[C@H](CO)NC(=O)[C@@H](NC(=O)[C@H](Cc1ccccc1)NC(=O)[C@@H](NC(=O)CNC(=O)[C@H](CCC(N)=O)NC(=O)C(C)(C)NC(=O)[C@@H](N)Cc1ccc(O)cc1)[C@@H](C)O)[C@@H](C)O)C(=O)N[C@@H](Cc1ccc(O)cc1)C(=O)N[C@@H](CC(C)C)C(=O)N[C@@H](CCC(=O)O)C(=O)N[C@@H](CCCCN)C(=O)N[C@@H](CCCCN)C(=O)N[C@@H](C)C(=O)N[C@@H](C)C(=O)N[C@@H](CCCCN)C(=O)N[C@@H](CCC(=O)O)C(=O)N[C@@H](Cc1ccccc1)C(=O)N[C@H](C(=O)N[C@@H](CCC(=O)O)C(=O)N[C@@H](Cc1c[nH]c2ccccc12)C(=O)N[C@@H](CC(C)C)C(=O)N[C@@H](CC(C)C)C(=O)N[C@@H](CO)C(=O)N[C@@H](C)C(N)=O)C(C)C)C(=O)O [Compound 25] (HELM PEPTIDE1{Y.[Aib].Q.G.T.F.T.S.D.Y.S.K.Y.L.E.K.K.A.A.K.E.F.V.E.W.L.L.S.A.[am]}|PEPTIDE2{[CCCCCCCCCCCCCCCC(=O)[*:2]].[gGlu]}$PEPTIDE1,PEPTIDE2,12:R3-2:R2$$$V2.0)
0.099	CCCCCCCCCCCCCCCC(=O)N[C@@H](CCC(=O)NCCCC[C@H](NC(=O)[C@H](CO)NC(=O)[C@H](CC(=O)O)NC(=O)[C@H](CC(C)C)NC(=O)[C@H](Cc1ccc(O)cc1)NC(=O)[C@@H](NC(=O)[C@H](CO)NC(=O)[C@H](Cc1ccc(O)cc1)NC(=O)[C@H](CC(=O)O)NC(=O)[C@H](CO)NC(=O)[C@@H](NC(=O)[C@H](Cc1ccccc1)NC(=O)[C@@H](NC(=O)CNC(=O)[C@H](CCC(N)=O)NC(=O)C(C)(C)NC(=O)[C@@H](N)Cc1ccc(O)cc1)[C@@H](C)O)[C@@H](C)O)[C@@H](C)CC)C(=O)N[C@@H](C)C(=O)N[C@@H](C)C(=O)N[C@@H](Cc1c[nH]cn1)C(=O)N[C@@H](CC(=O)O)C(=O)N[C@@H](Cc1ccccc1)C(=O)N[C@H](C(=O)N[C@@H](CCC(=O)O)C(=O)N[C@@H](Cc1c[nH]c2ccccc12)C(=O)N[C@@H](CC(C)C)C(=O)N[C@@H](CC(C)C)C(=O)N[C@@H](CCCNC(=N)N)C(=O)N[C@@H](C)C(N)=O)C(C)C)C(=O)O [Compound 27] (HELM PEPTIDE1{Y.[Aib].Q.G.T.F.T.S.D.Y.S.I.Y.L.D.S.K.A.A.H.D.F.V.E.W.L.L.R.A.[am]}|PEPTIDE2{[CCCCCCCCCCCCCCCC(=O)[*:2]].[gGlu]}$PEPTIDE1,PEPTIDE2,17:R3-2:R2$$$V2.0)
